From patent US20100021945A1, “DETERMINATION OF CHANGES IN CONCENTRATION” (JACOBS UNIVERSITY BREMEN GGMBH, priority 2006, published 2010)

Tests used:
[1] = Binding to macrocycle / dapoxyl displacement in the lysine decarboxylase assay; details: for binding constant K: cucurbit[7]uril, assay in 10 mM NH4OAc buffer pH 6.0
Text: FIG. 5 is a reaction diagram for the conversion of L-lysine (505, analyte precursor) into cadaverine (503, analyte, removes the fluorescent dye) and CO2 (not shown, most of it escapes from the solution) by L-lysine decarboxylase. Dapoxyl (501) was selected as the fluorescent dye and cucurbit[7]uril (a cation receptor) as the macrocycle, the fluorescence of the dapoxyl (501) being increased by the complexing with cucurbit[7]uril. As a result of conversion of the analyte precursor 505 into the analyte 503, there is a decrease in fluorescence during the enzymatic reaction because more and more dye 501 is removed by the analyte and the increase in the fluorescence of the dapoxyl caused by the macrocycle thus falls off. The cucurbituril acts as a cation receptor which binds the cadaverine analyte 503, which has two positive charges, better than the L-lysine analyte precursor 505, which has a single positive charge (total charge). The schematic representation of the lysine decarboxylase enzyme is again that of the arginase which is used in FIG. 1, because no crystal structure exists for lysine decarboxylase. The representation was produced with the Swiss PdbViewer v3.7 program (http://www.expasy.org/spdbv/).
The reaction was carried out in the presence of 2.5 μM of dapoxyl and 200 μM of cucurbit[7]uril in a 10 mM NH4OAc buffer (pH 6.0). Without any chemical change to the L-lysine, without any radio-active marking, and without any antibodies, the enzymatic reaction could thus be followed easily, directly in solution without any further incubation stages, with the help of a commercially available fluorescence spectrometer (Varian Cary Eclipse, λexc=336 nm, λobs=390 nm in the present case). It can clearly be seen in this case that the binding constants of lysine (K approx. 2000 M^−1) and cadaverine (K>1000000 M^−1) are very different. […] This is not a problem inasmuch as it is generally only the initial speed as it were of an enzymatic reaction which is determined in order to characterise the reaction. […]

[2] = Binding constants to the macrocycle by fluorescent dye (DBO-amine) displacement
Procedure: The binding constants were determined in water at a pH of 7 in the presence of 100 μM of DBO-amine and 200 μM of p-sulphonato-calix[4]arene.

arginase = biological target: T1, arginase (Homo sapiens, UniProt P05089); test: Arginase inhibitor screening, Hill analysis of fluorescence (DBO-amine/calixarene displacement assay); type: biochemical; details: 0.5 mM arginine, 16 μg/ml arginase, water pH 9.5, 100 μM DBO-amine, 200 μM p-sulphonato-calix[4]arene, 6 min incubation
T1 sequence (P05089 1-322): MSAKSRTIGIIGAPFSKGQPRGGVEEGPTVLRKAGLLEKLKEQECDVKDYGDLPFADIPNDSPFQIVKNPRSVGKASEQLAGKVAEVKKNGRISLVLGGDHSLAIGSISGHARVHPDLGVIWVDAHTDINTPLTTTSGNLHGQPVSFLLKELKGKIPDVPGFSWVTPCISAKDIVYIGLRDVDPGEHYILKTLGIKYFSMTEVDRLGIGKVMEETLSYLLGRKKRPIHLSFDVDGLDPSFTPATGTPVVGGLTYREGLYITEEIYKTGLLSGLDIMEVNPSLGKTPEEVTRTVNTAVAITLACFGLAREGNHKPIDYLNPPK
Procedure: What was selected as a fluorescent dye was 1-aminomethyl-2,3-diazabicyclo[2.2.2]oct-2-ene (101, DBO-amine) and p-sulphonato-calix[4]arene (a cation receptor) was used as the macrocycle, the fluorescence of the DBO-amine 101 being quenched by the calixarene.
The reaction was performed in the presence of 100 μM of the fluorescent dye DBO-amine and 200 μM of p-sulphonato-calix[4]arene in water at a pH of 9.5.
For this purpose, 0.5 mM of arginine was reacted with 16 μg/ml of arginase in different concentrations of the respective inhibitors. The solution (water, pH 9.5) also contained 100 μM of DBO-amine and 200 μM of p-sulphonato-calix[4]arene. For the Hill analysis, the intensity of fluorescence was plotted against the logarithm of the inhibitor concentration after an incubation time of 6 minutes.

| SMILES | binding constant K [1] | Ki (arginase) [nM] | other results |
| --- | --- | --- | --- |
| NCCCCCN [cadaverine] | > 1000000 M⁻¹ | – | concentration enough to remove all the fluorescent dye from the macrocycle ([1]; 2.5 μM dapoxyl, 200 μM cucurbit[7]uril, 10 mM NH4OAc buffer pH 6.0): 100 μm |
| NCCCC[C@H](N)C(=O)O [lysine, L-lysine] | approx. 2000 M^−1 | – | – |
| NC(N)=O [urea] | – | – | binding constant to the macrocycle (in words) ([2]; uncharged molecule with a cation receptor, binding can be ignored): extremely low binding constant |
| N[C@@H](CSCCB(O)O)C(=O)O [BEC, S-(2-boronethyl)-L-cysteine] | – | 4900 ± 500 | – |
| N=C(N)NCCC[C@H](N)C(=O)O [arginine, L-arginine] | – | – | binding constant K to the macrocycle ([2]; water, pH 7, 100 μM DBO-amine, 200 μM p-sulphonato-calix[4]arene): 3170 ± 130 M⁻¹ |
| N[C@@H](CCCCB(O)O)C(=O)O [ABH, 2(s)-amino-6-boronohexanoic acid] | – | 1000 ± 100 | – |
